PubChem BioAssay (NCI)
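Where inhibition never reached the appropriate level, the endpoint shown equals the highest concentration tested. Otherwise, values were interpolated linearly from a five-concentration, 48-hour dose response in 96-well plates. GI50: concentration for 50% inhibition of growth. TGI denotes the concentration required for complete inhibition of growth.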

Key:
Assay in all cases: DTP human tumour cell line panel, 48 h
OVCAR-4 ovarian = system: OVCAR-4 ovarian
RXF 393 renal = system: RXF 393 renal
RPMI-8226 leukemia = system: RPMI-8226 leukemia
NCI-H460 lung = system: NCI-H460 lung
OVCAR-3 ovarian = system: OVCAR-3 ovarian
OVCAR-8 ovarian = system: OVCAR-8 ovarian
SN12C renal = system: SN12C renal
MDA-MB-231 breast = system: MDA-MB-231 breast
NCI-H522 lung = system: NCI-H522 lung
TK-10 renal = system: TK-10 renal
M14 melanoma = system: M14 melanoma
SK-MEL-28 melanoma = system: SK-MEL-28 melanoma
MALME-3M melanoma = system: MALME-3M melanoma
DU-145 prostate = system: DU-145 prostate
A498 renal = system: A498 renal
MCF7 breast = system: MCF7 breast
BT-549 breast = system: BT-549 breast
HCC-2998 colon = system: HCC-2998 colon
OVCAR-5 ovarian = system: OVCAR-5 ovarian
UACC-257 melanoma = system: UACC-257 melanoma
CAKI-1 renal = system: CAKI-1 renal
SK-MEL-2 melanoma = system: SK-MEL-2 melanoma
SW-620 colon = system: SW-620 colon
UO-31 renal = system: UO-31 renal
HT29 colon = system: HT29 colon
COLO 205 colon = system: COLO 205 colon
HOP-62 NSCLC = system: HOP-62 NSCLC
NCI/ADR-RES ovarian = system: NCI/ADR-RES ovarian
A549 NSCLC = system: A549 NSCLC
ACHN renal = system: ACHN renal
SK-MEL-5 melanoma = system: SK-MEL-5 melanoma
SK-OV-3 ovarian = system: SK-OV-3 ovarian
SF-268 CNS = system: SF-268 CNS
EKVX NSCLC = system: EKVX NSCLC
KM12 colon = system: KM12 colon
HCT-15 colon = system: HCT-15 colon
NCI-H23 lung = system: NCI-H23 lung
786-0 renal = system: 786-0 renal
SNB-75 CNS = system: SNB-75 CNS
MDA-MB-435 = system: MDA-MB-435
HL-60(TB) leukemia = system: HL-60(TB) leukemia
HOP-92 NSCLC = system: HOP-92 NSCLC
UACC-62 melanoma = system: UACC-62 melanoma
SF-539 CNS = system: SF-539 CNS
IGROV1 ovarian = system: IGROV1 ovarian
PC-3 prostate = system: PC-3 prostate
U251 CNS = system: U251 CNS

Question: With `CN1CCN(Cc2cc(NC(=O)c3cccc(C#Cc4cccc5[nH]nc(N)c45)c3)cc(C(F)(F)F)c2)CC1` as the molecule, how does the GI50 (OVCAR-4 ovarian) read?
Answer: 1590 nM

Question: And the TGI (OVCAR-4 ovarian)?
Answer: 3.97 µM

Question: And the GI50 (RXF 393 renal)?
Answer: 1460 nM

Question: And the TGI (RXF 393 renal)?
Answer: 2830 nM

Question: What about the GI50 (RPMI-8226 leukemia) of the same molecule?
Answer: 2120 nM

Question: And the TGI (RPMI-8226 leukemia)?
Answer: 4.62 µM

Question: What about the GI50 (NCI-H460 lung) of the same molecule?
Answer: 1670 nM

Question: And the TGI (NCI-H460 lung)?
Answer: 3.06 µM

Question: What about the GI50 (OVCAR-3 ovarian) of the same molecule?
Answer: 1920 nM

Question: And the TGI (OVCAR-3 ovarian)?
Answer: 3.56 µM

Question: What about the GI50 (OVCAR-8 ovarian) of the same molecule?
Answer: 1850 nM

Question: And the TGI (OVCAR-8 ovarian)?
Answer: 3.62 µM

Question: And the GI50 (SN12C renal)?
Answer: 1660 nM

Question: And the TGI (SN12C renal)?
Answer: 3.13 µM

Question: And the GI50 (MDA-MB-231 breast)?
Answer: 1380 nM

Question: And the TGI (MDA-MB-231 breast)?
Answer: 2730 nM

Question: And the GI50 (NCI-H522 lung)?
Answer: 1740 nM

Question: And the TGI (NCI-H522 lung)?
Answer: 3.34 µM

Question: And the GI50 (TK-10 renal)?
Answer: 1960 nM

Question: What about the TGI (TK-10 renal) of the same molecule?
Answer: 3.38 µM

Question: And the GI50 (M14 melanoma)?
Answer: 1350 nM

Question: What about the TGI (M14 melanoma) of the same molecule?
Answer: 2900 nM

Question: What about the GI50 (SK-MEL-28 melanoma) of the same molecule?
Answer: 1560 nM

Question: And the TGI (SK-MEL-28 melanoma)?
Answer: 2940 nM

Question: What about the GI50 (MALME-3M melanoma) of the same molecule?
Answer: 1230 nM

Question: What about the TGI (MALME-3M melanoma) of the same molecule?
Answer: 2690 nM

Question: And the GI50 (DU-145 prostate)?
Answer: 1700 nM

Question: What about the TGI (DU-145 prostate) of the same molecule?
Answer: 3.07 µM

Question: What about the GI50 (A498 renal) of the same molecule?
Answer: 1010 nM

Question: What about the TGI (A498 renal) of the same molecule?
Answer: 2220 nM

Question: And the GI50 (MCF7 breast)?
Answer: 1650 nM

Question: And the TGI (MCF7 breast)?
Answer: 3.26 µM

Question: What about the GI50 (BT-549 breast) of the same molecule?
Answer: 1970 nM

Question: And the TGI (BT-549 breast)?
Answer: 3.62 µM

Question: What about the GI50 (HCC-2998 colon) of the same molecule?
Answer: 1990 nM

Question: And the TGI (HCC-2998 colon)?
Answer: 3.66 µM

Question: What about the GI50 (OVCAR-5 ovarian) of the same molecule?
Answer: 1500 nM

Question: And the TGI (OVCAR-5 ovarian)?
Answer: 2980 nM

Question: What about the GI50 (UACC-257 melanoma) of the same molecule?
Answer: 1830 nM

Question: What about the TGI (UACC-257 melanoma) of the same molecule?
Answer: 3.39 µM

Question: And the GI50 (CAKI-1 renal)?
Answer: 1680 nM

Question: And the TGI (CAKI-1 renal)?
Answer: 3.06 µM

Question: What about the GI50 (SK-MEL-2 melanoma) of the same molecule?
Answer: 1720 nM

Question: What about the TGI (SK-MEL-2 melanoma) of the same molecule?
Answer: 3.4 µM

Question: And the GI50 (SW-620 colon)?
Answer: 1500 nM

Question: And the TGI (SW-620 colon)?
Answer: 2890 nM

Question: What about the GI50 (UO-31 renal) of the same molecule?
Answer: 1710 nM

Question: What about the TGI (UO-31 renal) of the same molecule?
Answer: 3.16 µM

Question: What about the GI50 (HT29 colon) of the same molecule?
Answer: 1530 nM

Question: And the TGI (HT29 colon)?
Answer: 2930 nM

Question: What about the GI50 (COLO 205 colon) of the same molecule?
Answer: 1530 nM

Question: What about the TGI (COLO 205 colon) of the same molecule?
Answer: 2980 nM

Question: What about the GI50 (HOP-62 NSCLC) of the same molecule?
Answer: 1550 nM

Question: What about the TGI (HOP-62 NSCLC) of the same molecule?
Answer: 3000 nM

Question: And the GI50 (NCI/ADR-RES ovarian)?
Answer: 2020 nM

Question: And the TGI (NCI/ADR-RES ovarian)?
Answer: 4.2 µM

Question: And the GI50 (A549 NSCLC)?
Answer: 1830 nM

Question: And the TGI (A549 NSCLC)?
Answer: 3.28 µM

Question: What about the GI50 (ACHN renal) of the same molecule?
Answer: 1660 nM

Question: And the TGI (ACHN renal)?
Answer: 3.02 µM

Question: And the GI50 (SK-MEL-5 melanoma)?
Answer: 1700 nM

Question: What about the TGI (SK-MEL-5 melanoma) of the same molecule?
Answer: 3.1 µM

Question: And the GI50 (SK-OV-3 ovarian)?
Answer: 1940 nM

Question: What about the TGI (SK-OV-3 ovarian) of the same molecule?
Answer: 3.54 µM

Question: And the GI50 (SF-268 CNS)?
Answer: 1530 nM

Question: What about the TGI (SF-268 CNS) of the same molecule?
Answer: 3.15 µM

Question: What about the GI50 (EKVX NSCLC) of the same molecule?
Answer: 1750 nM

Question: And the TGI (EKVX NSCLC)?
Answer: 3.26 µM

Question: What about the GI50 (KM12 colon) of the same molecule?
Answer: 1320 nM

Question: What about the TGI (KM12 colon) of the same molecule?
Answer: 2670 nM

Question: And the GI50 (HCT-15 colon)?
Answer: 1810 nM

Question: What about the TGI (HCT-15 colon) of the same molecule?
Answer: 3.37 µM

Question: What about the GI50 (NCI-H23 lung) of the same molecule?
Answer: 1720 nM

Question: And the TGI (NCI-H23 lung)?
Answer: 3.4 µM

Question: What about the GI50 (786-0 renal) of the same molecule?
Answer: 1910 nM

Question: What about the TGI (786-0 renal) of the same molecule?
Answer: 3.39 µM

Question: What about the GI50 (SNB-75 CNS) of the same molecule?
Answer: 1500 nM

Question: What about the TGI (SNB-75 CNS) of the same molecule?
Answer: 2920 nM

Question: And the GI50 (MDA-MB-435)?
Answer: 1480 nM

Question: What about the TGI (MDA-MB-435) of the same molecule?
Answer: 2900 nM

Question: What about the GI50 (HL-60(TB) leukemia) of the same molecule?
Answer: 1890 nM

Question: And the TGI (HL-60(TB) leukemia)?
Answer: 4.42 µM

Question: What about the GI50 (HOP-92 NSCLC) of the same molecule?
Answer: 1240 nM

Question: And the TGI (HOP-92 NSCLC)?
Answer: 2630 nM

Question: What about the GI50 (UACC-62 melanoma) of the same molecule?
Answer: 1690 nM

Question: And the TGI (UACC-62 melanoma)?
Answer: 3.22 µM

Question: And the GI50 (SF-539 CNS)?
Answer: 1170 nM

Question: What about the TGI (SF-539 CNS) of the same molecule?
Answer: 2430 nM

Question: And the GI50 (IGROV1 ovarian)?
Answer: 2050 nM

Question: And the TGI (IGROV1 ovarian)?
Answer: 4.07 µM

Question: And the GI50 (PC-3 prostate)?
Answer: 1810 nM

Question: And the TGI (PC-3 prostate)?
Answer: 3.52 µM

Question: And the GI50 (U251 CNS)?
Answer: 1810 nM

Question: What about the TGI (U251 CNS) of the same molecule?
Answer: 3.22 µM
